Experimental data taken from the supplement of paper PMC10307832.

What was measured:
Assay in all cases: relative viability (nuclei count vs DMSO), 5 days (fraction); higher = more cells survive
Irinotecan + Trametinib = compound: CCc1c2c(nc3ccc(OC(=O)N4CCC(N5CCCCC5)CC4)cc13)-c1cc3c(c(=O)n1C2)COC(=O)[C@]3(O)CC [Irinotecan] + CC(=O)Nc1cccc(-n2c(=O)n(C3CC3)c(=O)c3c(Nc4ccc(I)cc4F)n(C)c(=O)c(C)c32)c1 [Trametinib] (partner 0.02 µM)
Method in brief: (§1)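 Relative viability divides the nuclei count in treated wells by that in vehicle wells. Lung cancer cell lines were seeded in 1536-well plates, dosed by pin tool the next day, and fixed and stained after 5 days in one step with final 0.05% Triton X-100, 1% formaldehyde and 1 ug/ml Hoechst. Dosing was a single drug or a fixed anchor-drug dose plus five library-drug doses (not always all listed) in √10 steps, and values are medians of duplicate plates imaged at 4×.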

Irinotecan + Alpelisib = compound: CCc1c2c(nc3ccc(OC(=O)N4CCC(N5CCCCC5)CC4)cc13)-c1cc3c(c(=O)n1C2)COC(=O)[C@]3(O)CC [Irinotecan] + Cc1nc(NC(=O)N2CCC[C@H]2C(N)=O)sc1-c1ccnc(C(C)(C)C(F)(F)F)c1 [Alpelisib] (partner 2 µM)
Method in brief: as §1

RU-SKI 43 + Palbociclib = compound: CC[C@@H](C)CNCC(=O)N1CCC2=C([C@@H]1COC3=CC=CC(=C3)C)C=CS2 [RU-SKI 43] + CC(=O)c1c(C)c2cnc(Nc3ccc(N4CCNCC4)cn3)nc2n(C2CCCC2)c1=O [Palbociclib] (partner 0.5 µM)
Method in brief: as §1

MK-8033 + Luminespib = compound: Cn1cc(-c2cnc3ccc4ccc(CS(=O)(=O)NCc5ccccn5)cc4c(=O)c3c2)cn1 [MK-8033] + CCNC(=O)c1noc(-c2cc(C(C)C)c(O)cc2O)c1-c1ccc(CN2CCOCC2)cc1 [Luminespib] (partner 0.01 µM)
Method in brief: as §1

Row | Cell Line | relative viability (Irinotecan + Trametinib; first compound 0.6325 µM) | relative viability (Irinotecan + Trametinib; first compound 2 µM) | relative viability (Irinotecan + Trametinib; first compound 6.325 µM) | relative viability (Irinotecan + Trametinib; first compound 20 µM) | relative viability (Irinotecan + Alpelisib; first compound 0.6325 µM) | relative viability (Irinotecan + Alpelisib; first compound 2 µM) | relative viability (Irinotecan + Alpelisib; first compound 6.325 µM) | relative viability (Irinotecan + Alpelisib; first compound 20 µM) | relative viability (RU-SKI 43 + Palbociclib; first compound 0.1 µM) | relative viability (RU-SKI 43 + Palbociclib; first compound 0.3162 µM) | relative viability (RU-SKI 43 + Palbociclib; first compound 1 µM) | relative viability (RU-SKI 43 + Palbociclib; first compound 3.162 µM) | relative viability (RU-SKI 43 + Palbociclib; first compound 10 µM) | relative viability (MK-8033 + Luminespib; first compound 0.02 µM) | relative viability (MK-8033 + Luminespib; first compound 0.06325 µM) | relative viability (MK-8033 + Luminespib; first compound 0.2 µM) | relative viability (MK-8033 + Luminespib; first compound 0.6325 µM) | relative viability (MK-8033 + Luminespib; first compound 2 µM)
1 | NCI-H1666 | 0.769 | 0.569 | 0.638 | 0.432 | 0.697 | 0.552 | 0.486 | 0.337 | 0.66 | 0.63 | 0.707 | 0.609 | 0.64 | 1 | 0.987 | 0.979 | 1.03 | 0.924
2 | 201T | 0.771 | 0.347 | 0.255 | 0.27 |  | 0.87 | 0.465 | 0.331 | 0.367 | 0.329 | 0.368 | 0.361 | 0.361 | 0.986 | 1.07 | 0.957 | 1.06 | 1.03
3 | LK-2 | 0.821 | 0.7 | 0.465 | 0.281 | 1.17 | 1.4 | 0.487 | 0.259 | 0.685 | 0.912 | 0.949 | 0.673 | 0.674 | 0.172 |  | 0.265 | 0.187 | 0.26
4 | NCI-H1755 | 0.733 | 0.456 | 0.405 | 0.469 | 0.822 | 0.434 | 0.292 | 0.363 | 0.478 | 0.458 | 0.44 | 0.478 | 0.466 | 0.371 | 0.387 | 0.411 | 0.282 | 0.467
5 | LOU-NH91 | 0.774 | 0.768 | 0.466 | 0.29 | 0.663 | 0.596 | 0.422 | 0.301 | 0.523 | 0.515 | 0.552 | 0.496 | 0.518 | 0.318 | 0.335 | 0.349 | 0.379 | 0.326
6 | NCI-H1975 | 0.224 | 0.341 | 0.292 | 0.224 | 0.654 | 0.68 | 0.324 | 0.195 | 0.642 | 0.626 | 0.669 | 0.541 | 0.352 | 0.195 | 0.24 | 0.176 | 0.203 | 0.15
7 | NCI-H650 | 0.733 | 0.308 | 0.173 | 0.206 | 0.889 | 0.432 | 0.229 | 0.323 | 0.344 | 0.312 |  | 0.338 | 0.337 | 0.827 | 0.787 | 0.819 | 0.833 | 0.769
8 | SW 1573 |  | 0.432 | 0.138 | 0.0925 | 0.829 | 0.481 | 0.192 | 0.204 | 0.37 | 0.453 | 0.397 | 0.375 | 0.283 | 0.178 | 0.206 | 0.719 | 0.366 | 0.185
9 | NCI-H441 | 0.405 | 0.426 | 0.141 | 0.198 | 0.68 | 0.513 | 0.336 | 0.5 | 0.192 | 0.278 | 0.205 | 0.229 | 0.146 | 0.403 | 0.375 | 0.352 | 0.336 | 0.305
10 | NCI-H1944 | 0.291 | 0.204 | 0.177 | 0.178 | 0.58 | 0.271 | 0.168 | 0.167 | 0.34 | 0.334 | 0.328 | 0.316 | 0.303 | 0.742 | 0.62 | 0.708 | 0.719 | 0.653
11 | NCI-H838 | 0.672 | 0.647 | 0.319 | 0.171 | 1.28 | 0.962 | 0.354 | 0.295 | 0.213 | 0.233 | 0.225 | 0.239 | 0.188 | 0.248 | 0.292 | 0.335 | 0.296 | 0.273
12 | NCI-H661 | 0.464 | 0.524 | 0.535 | 0.209 | 0.798 | 0.538 | 0.277 | 0.269 | 0.384 | 0.398 | 0.401 | 0.348 | 0.344 | 0.926 | 0.938 | 0.893 | 0.948 | 0.872
